Data published in PubChem BioAssay AID179 (DTP/NCI, 2004).
Activity calls are given as the source filed them.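 Rule for the calls: active = compounds giving half or more protection of infected cells from virus-caused growth loss, again on retest; inactive = the rest.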 Where a SMILES comes first, the peptide text is derived from it. [ ]: non-standard residue; d: D form. The star is where a group is joined. ξ: configuration not given here. ξPhe(4-NO2) = NC(Cc1ccc([N+](=O)[O-])cc1)C(=O)O; Boc = CC(C)(C)OC(=O)*

System: CEM cells HIV-1 protection, formazan growth assay
Assay: NCI AIDS Antiviral Assay
Conditions: for IC50: measured here: growth of uninfected CEM cells
Summary of the method: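 Human CEM cells, uninfected and HIV-1-infected, exposed to five drug concentrations; growth measured by soluble formazan assay and scored as percent protection from infection, with protecting compounds retested.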

| Structure (SMILES) | EC50 [µM] | IC50 [µM] | outcome |
| --- | --- | --- | --- |
| O=C1O/C(=C2\OCc3ccccc32)c2ccccc21 | > 151 | > 151 | – |
| Cc1cc(O)c2c(c1O)C(=O)C13C(=C2O)C(=O)C2C(O)C1C1C(O)C3C(=O)C3=C(O)c4c(O)cc(C)c(O)c4C(=O)C321 (stereo not given) | > 45.7 | 0.0977 | – |
| COC(=O)c1cc2c(=O)n(C)c(=O)n(C)c2[nH]c1=O | > 200 | > 200 | – |
| CC1=[N+]([O-])C(C)(C)N(N=O)C1(C)C | > 200 | > 200 | – |
| C1=Nc2ccc(cc2)-c2ccc(cc2)N=Cc2ccccc2OCc2cccc(n2)COc2ccccc21 | > 200 | > 200 | – |
| CC1(C)O[C@@H](CCl)C[C@@H](C#N)O1 | – | – | inactive |
| S=C1CSc2c(cnc3ccccc23)N1 | > 200 | 105 | – |
| O=[N+]([O-])c1cc(Cl)ccc1S(=O)(=O)N1CCCc2cc(Cl)ccc21 | > 200 | 30.2 | – |
| NC(N)=NS(=O)(=O)c1ccc(NC(=O)c2cccc3c(Nc4ccc(S(N)(=O)=O)cc4)c4ccccc4nc23)cc1 | > 43.7 | > 43.7 | – |
| O=c1c(O)c(-c2ccc(-c3oc4ccccc4c(=O)c3O)cc2)oc2ccccc12 | > 200 | 93.3 | – |
| CS(=O)(=O)CCC1CCC(=O)O1 (stereo not given) | > 200 | 182 | – |
| O=C1c2ccccc2C(=O)c2c1cc(S(=O)(=O)O)c(O)c2O | – | – | inactive |
| Cc1cc(C)c(OC(=O)Nc2cccc3ccccc23)c(-c2ccccc2)c1 | > 200 | 19.5 | – |
| CS1(=O)=CC(=O)CC(c2ccccc2)C1 (stereo not given) | > 1120 | > 1120 | – |
| CC(=O)C1CC2(c3ccccc3)C(=O)c3ccccc3N2O1 (stereo not given) | > 447 | 195 | – |
| Cc1nc2c(Br)cc(Br)cc2c(=O)n1-c1ccccc1NC1OCC(O)C(O)C1O (stereo not given) | > 200 | – | – |
| CC(=O)OC1CCCn2c1nc1c2C(=O)C(C)=C(N2CC2)C1=O (stereo not given) | – | – | inactive |
| CCOP(=O)(OCC)C(c1ccc(F)cc1)N(C(=O)NC(F)(F)F)c1ccc(F)cc1 (stereo not given) | > 200 | > 200 | – |
| C#CCOCn1cnc2c(Sc3c([N+](=O)[O-])ncn3C)ncnc21 | > 105 | 38 | – |
| N#CCCN(c1ccc(C=Nc2ccccc2)cc1)S(=O)(=O)c1ccccc1 | – | – | inactive |
| O=C1c2ccccc2C(=O)N1CCSCC(CO)SCCN1C(=O)c2ccccc2C1=O (stereo not given) | 191 | > 200 | – |
| Cc1csc(NNC(=O)Nc2ccccc2)n1 | > 129 | 43.7 | – |

| Structure (SMILES) | EC50 [µM] | IC50 [µM] | outcome |
| --- | --- | --- | --- |
| S=c1n(-c2ccc(Cl)cc2)c2nc3ccccc3nc(/c2=N\Nc2ccccc2)n1-c1ccccn1 | > 37.2 | 29.5 | – |
| O=C(O)CSSCC(=O)O | > 200 | > 200 | – |
| C/C(=N/OC(=O)N(C)C)c1cc(Cl)ccc1Cl | > 200 | 135 | – |
| Cc1ccc(NC(=O)CC2C(=O)Nc3ccccc3S2=O)cc1C (stereo not given) | > 15.1 | > 15.1 | – |
| O=NNc1ccc(S(=O)c2ccccc2)cn1 (stereo not given) | > 200 | > 200 | – |
| CCNC(=O)CNC(=O)C(Cc1ccc([N+](=O)[O-])cc1)NC(=O)OC(C)(C)C (stereo not given) (Boc-[ξPhe(4-NO2)]-Gly-NHEt) | 162 | 813 | – |
| C[C@H]1[C@H](NC(=O)/C(=N\OC(C)(C)C(=O)O)c2csc(N)n2)C(=O)N1S(=O)(=O)O | > 575 | > 575 | – |
| O=C(/C=C/c1ccc(O)cc1)OC[C@@H](O)COC1OC(CO)C(O)C(O)C1O (stereo not given in full) | – | – | inactive |
| Cc1cc2c(c3c1c1ccccc1n3C)C(=O)c1ccccc1C2=O | > 1.7 | > 1.7 | – |
| O=Cc1ccccc1OCCCC[P+](c1ccccc1)(c1ccccc1)c1ccccc1 | > 200 | 2.82 | – |
| N#CN(CS(=O)(=O)O)C(=N)N | > 200 | > 200 | – |
| O=C(CC(=O)c1ccc(Cl)cc1)Cc1ccc2ccccc2n1 | > 11.2 | > 11.2 | – |
| Clc1ccc(OCc2nnc3n2N=C(c2ccccc2)CS3)c(Cl)c1 | – | – | inactive |
| C[C@]12CC[C@H]3[C@@H](CC=C4C[C@@H](O)CC[C@@]43C)[C@@H]1CC[C@@H]2N(CCO)CCO | > 200 | 60.3 | – |
| CS(=O)(=O)c1nc(NCCc2ccccc2)c2cnn(C3CCCCO3)c2n1 (stereo not given) | – | – | inactive |
| N#CCC(=O)N/N=C\C(O)C(O)C(O)C(O)CO (stereo not given) | – | – | inactive |
| Cc1ccnc(NC(=O)Nc2cc(Cl)ccc2Cl)c1 | > 200 | > 200 | – |
| CCOC(=O)c1cc2sc(NC(=O)c3ccco3)nc2o1 | 182 | > 200 | – |
| COC1(OC)C2(Cl)C(Cl)=C(Cl)C1(Cl)C1C(=O)C=CC(=O)C12 (stereo not given) | > 60.3 | 25.1 | – |
| COc1ccccc1/C=C/C(=O)c1sc(-c2cccnc2)nc1C | > 15.5 | > 15.5 | – |
| CN(C)S(=O)(=O)C(c1ccccc1)C1(O)CCCCC1 (stereo not given) | > 437 | > 437 | – |
| N#Cc1ccc(C=C2C(=O)NC(=O)NC2=O)cc1 | > 209 | 107 | – |

| Structure (SMILES) | EC50 [µM] | IC50 [µM] | outcome |
| --- | --- | --- | --- |
| O=[N+]([O-])c1cc([As](=O)(O)O)ccc1O | > 200 | > 200 | – |
| NC(=O)CCC(NC(=O)C(F)(F)F)C(=O)O (stereo not given) | – | – | inactive |
| O=C(c1ccncc1)n1nc(-c2ccccc2)c(N=Nc2ccc([N+](=O)[O-])cc2)c1-c1ccccc1 | > 39.8 | > 39.8 | – |
| COC1OC(CO)C(O)C2NCSC12 (stereo not given) | 33.9 | > 200 | – |
| Cc1cc(=S)oc2c3c(ccc12)OC(C)(C)[C@H](OC(=O)C12CCC(C)(C(=O)O1)C2(C)C)[C@@H]3OC(=O)C12CCC(C)(C(=O)O1)C2(C)C (stereo not given in full) | 0.0575 | 20 | – |
| c1ccc2c(c1)NC1CCN2C1 (stereo not given) | > 813 | > 813 | – |
| CC(=O)NC1=C(C)C(=O)c2c(nc3n2CCC3O)C1=O (stereo not given) | > 200 | 1.58 | – |
| CN(C)c1ccc(/C=c2\sc3nnc(Cc4ccccc4)n3c2=O)cc1 | > 3.98 | > 3.98 | – |
| Cc1cc2c(cc1C)[n+]([O-])c(NCCCN(C)C)c(C#N)[n+]2[O-] | > 200 | 72.4 | – |
| N#C/C(=C\c1ccc([N+](=O)[O-])cc1)c1ccccc1 | > 11 | > 11 | – |
| COc1ccc(C(C#N)NC23CC4CC(CC(C4)C2)C3)cc1OC (stereo not given) | – | – | inactive |
| OC1C(O)C2CC1C1C2C2(Cl)C(Cl)=C(Cl)C1(Cl)C2(Cl)Cl (stereo not given) | > 200 | 12.6 | – |
| O=C(N/N=C\c1cccc(/C=N\NC(=O)Nc2ccc(N=Nc3ccccc3)cc2)n1)Nc1ccc(N=Nc2ccccc2)cc1 | > 200 | 39.8 | – |
| O=C(O)c1ccc(CS(=O)(=O)c2ccccc2)c([N+](=O)[O-])c1 | > 776 | 575 | – |
| COc1cc(C(=O)Nc2cccc3ccccc23)c(Br)c(OC)c1OC | > 45.7 | > 45.7 | – |
| O=Cc1ccc2c(c1)CC1(C2)Cc2ccc(C=O)cc2C1 | > 200 | 4.79 | – |
| CC(CN(C)C)OC(=O)c1cc2ccccc2n1Cc1ccccc1 (stereo not given) | > 200 | 87.1 | – |
| Cc1oc2c(c1C)S(=O)(=O)C(C#N)=CN2 | > 200 | > 200 | – |
| CC(C)CC(N)C(=O)NC(CC(=O)O)C(=O)NC(CCCCN)C(=O)NC(C)C(=O)NC(CO)C(=O)NC(Cc1ccc(O)cc1)C(=O)NC(CO)C(=O)NC(C(=O)NC(CC(N)=O)C(=O)NC(Cc1cnc[nH]1)C(=O)NC(CC(C)C)C(N)=O)C(C)O (stereo not given) (H-LDKASYSTNHL-NH2; configuration not given here) | > 50.1 | > 50.1 | – |
| CC12CC(OC(=O)[C@]1(C)O)[C@@H]([C@]1(O)CC[C@H]3[C@@H]4C[C@H]5O[C@]56[C@@H](O)C=CC(=O)[C@]6(C)[C@H]4CC[C@@]31C)C2 (stereo not given in full) | > 3.89 | 0.145 | – |
| N#CC1=C2Oc3ccccc3N2C(c2ccccc2)C(C#N)=C1N (stereo not given) | > 200 | > 200 | – |
| CCOC(=O)C1=NN(c2ccccc2)C(=O)/C1=C\N1CCNC1=S | > 135 | > 100 | – |

| Structure (SMILES) | EC50 [µM] | IC50 [µM] | outcome |
| --- | --- | --- | --- |
| CC(O)(c1ccccc1)c1ccc2ccccc2n1 (stereo not given) | > 200 | 38 | – |
| N=C(N)SCC1OCOC1C1OCOC1CSC(=N)N (stereo not given) | > 776 | > 776 | – |
| CCC1CC2CN3CCc4c([nH]c5ccccc45)C(C(=O)OC)(C2)C13 (stereo not given) | – | – | inactive |
| CC1=C(C(=O)CC(=O)C(=O)Nc2cccc(Cl)c2C)Sc2ccccc2N1 | > 64.6 | > 64.6 | – |
| Nc1cc(F)ccc1CC(=O)O | > 200 | > 200 | – |
| COc1ccc2[nH]c3c(C)c4ccnc(NCCCN(C)CCCN)c4c(C)c3c2c1 | > 1 | 0.38 | – |
| O=S(=O)(O)SCc1ccccc1CSS(=O)(=O)O | > 200 | > 200 | – |
| COC(=O)n1c(=O)n(-c2ccccc2)c(=O)n1C(=O)Nc1ccccc1 | > 200 | 195 | – |
| CCOc1c2c(nn(C)c1=O)Oc1ccccc1N2CCCN1CCOCC1 | > 589 | 19.1 | – |
| OC(CC(O)(C(F)(F)F)C(F)(F)F)C(O)c1ccco1 (stereo not given) | > 200 | 58.9 | – |
| O=c1ccc2cc(Cl)ccc2o1 | > 75.9 | > 75.9 | – |
| COc1cc(OC)cc(Oc2nc3cc(F)c(F)cc3nc2-c2ccccc2)c1 | > 200 | > 200 | – |
| CC1(C)NC(C)(C)/C(=N\O)C(=NO)/C1=N/O | > 200 | > 200 | – |
| Cc1cccc2c1c1ccc3c(c1n2C)C(=O)C=CC3=O | > 18.2 | 9.77 | – |
| CCN(C(C)=O)c1cnc(/C=N/NC(N)=S)c2ccccc12 | > 200 | 2.57 | – |
| Cc1c2c(n(CCN(C)C)c1C)NN=C(C#N)S2(=O)=O | > 200 | > 200 | – |
| N#CC(CCN1CCC(Nc2ccccc2)(c2nnnn2C2CCCCC2)CC1)(c1ccccc1)c1ccccc1 | > 200 | > 200 | – |
| CCC12C=CCN3CC[C@@]4(c5ccc(OC)cc5N(C)[C@H]4[C@@](O)(C(=O)OC)[C@@H]1OC(C)=O)C32 (stereo not given in full) | – | – | inactive |
| CC(C)C1=CC23CCC4C(C)(C(=O)O)CCCC4(C)C2CC1C1C(=O)N(c2ccc(Cc4ccc(N5C(=O)C6C7CC8C9(C)CCCC(C)(C(=O)O)C9CCC8(C=C7C(C)C)C6C5=O)cc4)cc2)C(=O)C13 (stereo not given) | > 35.5 | 13.8 | – |
| O=c1[nH]cnc2c(NC3OC(CO)C(O)C3O)cccc12 (stereo not given) | – | – | inactive |
| CCSC1=C(C)N(C=NC(C)(C)C)CC1 | > 1100 | > 1100 | – |
